Assay results from US20260083865A1, “PROSTATE SPECIFIC MEMBRANE ANTIGEN (PSMA) LIGANDS AND USE THEREOF” (priority 2022, published 2026).
Like-named read-outs stand apart in the source and are kept apart here. Blank lines part the entries; values can stand above or below the compound they belong to. Numbered stars: 1 amine (or outer) side, 2 acyl side, 3 side chain; on linkers, the order of the positions; unused ones are H or OH. Bridge positions count the residues as written; N and C are the ends. Square brackets hold non-standard residues; d marks the D form. Peptide text beside a SMILES is read from it. * marks the point of attachment. X17 = N=c1ccc2c(-c3ccc(C(=O)NCCC(=O)N4Cc5ccccc5-c5c(nnn5CCCCCC(=O)NCCCOCCOCCOCCCNC(=O)CCC(=O)NCCCOCCOCCOCCCN*)-c5ccccc54)cc3C(=O)O)c3ccc(N)c(S(=O)(=O)O)c3oc-2c1S(=O)(=O)O; X3 = O=C(O)CN1CCN(CC(=O)O)CCN(CC(=O)NCCCOCCOCCOCCCN*)CCN(CC(=O)O)CC1; X18 = O=C(O)c1cccc(CN2CCOCCOCCN(Cc3cc(N*)cc(C(=O)O)n3)CCOCCOCC2)n1; Phe(4-Cl) = N[C@@H](Cc1ccc(Cl)cc1)C(=O)O; Arg(Me) = CNC(=N)NCCC[C@H](N)C(=O)O; Glutaryl = O=C(CCCC(=O)[*:2])[*:1]; X1 = O=C(CC1CCN([*:1])CC1)[*:2]; Cit = NC(=O)NCCC[C@H](N)C(=O)O; Lys(Me) = CNCCCC[C@H](N)C(=O)O; Suc = O=C(CCC(=O)[*:2])[*:1]; Tle = CC(C)(C)[C@H](N)C(=O)O; Aib = CC(C)(N)C(=O)O

Columns and labels:
[1] = molecular target: T1, Fc-fusion protein of human PSMA (hPSMA-Fc) (Homo sapiens, UniProt Q04609); assay: Surface plasmon resonance assay (Biacore T200, single cycle kinetic); assay type: binding; conditions: hPSMA-Fc, 25° C., read-out: pKD CAT (converted)
T1 construct: purchased Acro Biosystems PSA-H5264
Experimental: Surface plasmon resonance (SPR) studies were performed using a Biacore™ T200 SPR system. Briefly, polarized light is directed towards a gold-labeled sensor surface, and minimum intensity reflected light is detected. The angle of reflected light changes as molecules bind and dissociate.
Fc-fusion protein of human PSMA (hPSMA-Fc, Acro Biosystems, Cat #PSA-H5264) was captured on a Fc-capture chip (Biacore™ CM5 sensor chip coated with ˜300 RU of an Fc-binding peptide). hPSMA-Fc was diluted in Running Buffer (HBST, 0.1% DMSO) to a final concentration of 100 nM and then flushed over the Fc-capture chip to immobilized ˜1000 RUs.
Stock solutions of test compounds were prepared by dissolving each compound in DMSO. DMSO stock solution were diluted 1:1000 in Running Buffer without DMSO. Further sequential dilutions were made with Running Buffer containing 0.1% DMSO. SPR binding analyses were performed in Single Cycle Kinetic (SCK) mode at 25° C. Flow cell coated with the Fc-binding peptide only served as reference flowcell. After each SCK run, hPSMA-Fc was removed with 10 mM glycine buffer, pH 1.5.
In between every three SCK measurements, a blank run with Running Buffer instead of test compound was included to correct for baseline drifts (double blanking method).
Table 5 describes the protocol steps for Fc-fusion target capturing and assessment of the binding kinetics.
For each test compound, SPR raw data in the form of resonance units (RU) were plotted as sensorgrams using the Biacore™ T200 control software. The signal from the blank sensorgram was subtracted from that of the test compound sensorgram (blank corrected). The blank corrected sensorgram was corrected for baseline drift by subtracting the sensorgram of a SCK run without the test compound (running buffer only). The dissociation constant (KD) was calculated from Blank-normalized SPR data using the 1:1 Langmuir binding model from the Biacore™ Insight Evaluation software. The pKD value (negative decadic logarithm of dissociation constant) was calculated using Microsoft Excel.

[2] = molecular target: T2, PSMA-expressing C4-2 cells (Homo sapiens, UniProt Q04609); assay: FACS binding assay (competition with 50 nM PSM-0183); conditions: C4-2 cells, read-out: pIC50 [C4-2] CAT (converted)
T2 construct: PSMA-expressing C4-2 cells (ATCC, Cat. No. CRL-3314) were cultured in RPMI-1640; host or cells: C4-2 cells
Experimental: In order to determine binding of compounds according to the present invention to PSMA-expressing cells, a FACS binding assay was established.
PSMA-expressing C4-2 cells (ATCC, Cat. No. CRL-3314) were cultured in RPMI-1640 (Pan Biotech, Cat. No. P04-18050) including 10% fetal calf serum (Biochrom) and 100 U/ml penicillin and 100 μg/mL streptomycin (Sigma, Cat. No. P0781). Cells were detached with Accutase (Biolegend, Cat. No. BLD-423201) and washed in FACS buffer (PBS (Sigma, Cat. No. D8537) including 1% fetal calf serum). Cells were diluted in FACS buffer to a final concentration of 500,000 cells per mL. 200 μL of the cell suspension were transferred to a u-shaped non-binding 96-well plate (Greiner Bio-One, Cat. No. 650901) and cells were washed in ice-cold FACS buffer.
For IC50 determination, C4-2 cells were incubated with 50 nM PSM-0183 (Ac-Thr-Aib-Phe[Cys-Lys-Arg-Aib-Asn-Cys]-Tle-Thr-Asp-Ttds-Ttds-AF488N3K-NH2) in the presence of increasing concentrations of test compounds at 4° C. for 1 hour. After two wash steps with ice-cold FACS buffer, cells were analyzed in an Attune NxT flow cytometer. Median fluorescence intensities (MFI) of the FITC/AF488-channel were calculated by Attune NxT software. MFI values were plotted against peptide concentration and four parameter logistic (4PL) curve fitting and IC50/pIC50 calculations were performed using ActivityBase software (IDBS).

[3] = SPR, single cycle kinetic, category

T1 sequence (Q04609 44-750 limits assumed): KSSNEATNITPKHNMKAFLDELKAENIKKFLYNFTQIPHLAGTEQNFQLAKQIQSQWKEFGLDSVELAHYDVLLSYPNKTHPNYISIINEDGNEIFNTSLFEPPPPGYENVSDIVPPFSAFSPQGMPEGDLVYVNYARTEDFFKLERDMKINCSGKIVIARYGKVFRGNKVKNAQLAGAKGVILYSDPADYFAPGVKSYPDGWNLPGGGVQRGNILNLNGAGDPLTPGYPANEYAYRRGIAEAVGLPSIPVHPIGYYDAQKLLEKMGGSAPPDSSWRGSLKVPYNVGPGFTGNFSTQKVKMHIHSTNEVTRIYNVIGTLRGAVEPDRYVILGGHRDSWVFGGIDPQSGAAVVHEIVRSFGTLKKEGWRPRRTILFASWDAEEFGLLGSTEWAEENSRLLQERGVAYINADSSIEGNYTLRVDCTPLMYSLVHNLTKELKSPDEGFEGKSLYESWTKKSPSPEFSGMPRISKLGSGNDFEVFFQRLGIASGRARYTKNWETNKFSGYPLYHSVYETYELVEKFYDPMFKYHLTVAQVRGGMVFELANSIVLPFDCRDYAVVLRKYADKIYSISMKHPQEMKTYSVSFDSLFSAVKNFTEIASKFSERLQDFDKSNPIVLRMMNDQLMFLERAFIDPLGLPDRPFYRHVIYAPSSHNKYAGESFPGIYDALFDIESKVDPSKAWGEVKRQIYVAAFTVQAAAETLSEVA
T2 sequence (Q04609 whole entry): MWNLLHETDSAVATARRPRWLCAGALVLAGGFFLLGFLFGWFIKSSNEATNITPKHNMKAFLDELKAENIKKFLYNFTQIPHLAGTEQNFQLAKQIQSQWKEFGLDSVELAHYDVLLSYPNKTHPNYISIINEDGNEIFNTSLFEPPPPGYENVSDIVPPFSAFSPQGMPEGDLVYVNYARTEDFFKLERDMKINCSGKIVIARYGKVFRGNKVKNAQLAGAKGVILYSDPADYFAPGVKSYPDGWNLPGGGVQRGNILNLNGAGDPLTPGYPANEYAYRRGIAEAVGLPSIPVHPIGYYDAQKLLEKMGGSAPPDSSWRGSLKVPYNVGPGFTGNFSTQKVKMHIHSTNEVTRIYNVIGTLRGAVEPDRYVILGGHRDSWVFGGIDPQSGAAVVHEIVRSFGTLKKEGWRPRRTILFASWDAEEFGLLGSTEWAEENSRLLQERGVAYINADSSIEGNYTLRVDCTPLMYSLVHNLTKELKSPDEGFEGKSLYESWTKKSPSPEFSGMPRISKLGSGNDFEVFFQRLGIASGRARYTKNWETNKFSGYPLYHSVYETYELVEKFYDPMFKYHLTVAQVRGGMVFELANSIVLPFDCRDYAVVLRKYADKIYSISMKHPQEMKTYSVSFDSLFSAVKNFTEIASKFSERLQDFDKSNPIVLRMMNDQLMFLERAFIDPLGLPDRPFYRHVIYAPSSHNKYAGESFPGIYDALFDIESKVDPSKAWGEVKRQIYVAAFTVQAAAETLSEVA

- IC50 ([2]; pIC50 category of FACS binding): < 200 nM
SMILES: CNCCCC[C@@H]1NC(=O)[C@@H](NC(=O)[C@H](Cc2ccc(Cl)cc2)NC(=O)C(C)(C)NC(=O)[C@@H](NC(=O)CC2CCN(C(=O)CCCC(=O)Nc3cc(CN4CCOCCOCCN(Cc5cccc(C(=O)O)n5)CCOCCOCC4)nc(C(=O)O)c3)CC2)[C@@H](C)O)CSSC[C@@H](C(=O)N[C@H](C(=O)N[C@H](C(N)=O)[C@@H](C)O)C(C)(C)C)NC(=O)[C@H](CC(N)=O)NC(=O)C(C)(C)NC(=O)[C@H](CCCNC(=N)NC)NC1=O [PSM-0515, Macropa-Cmp-Thr-Aib-Pcf-[Cys-Lys(Me)-Arg(Me)-Aib-Asn-Cys]-Tle-Thr-NH2] ({X18-Glutaryl}-[X1]T[Aib][Phe(4-Cl)]C[Lys(Me)][Arg(Me)][Aib]NC[Tle]T-NH2; disulfide 5-10)

- Kd ([1]; PSMA SPR assay, pKD category): < 12.6 nM
SMILES: C[C@@H](O)[C@H](NC(=O)CCC(=O)NCCCOCCOCCOCCCNC(=O)CCC(=O)NCCCOCCOCCOCCCNC(=O)CCCCCn1nnc2c1-c1ccccc1CN(C(=O)CCNC(=O)c1ccc(-c3c4ccc(=N)c(S(=O)(=O)O)c-4oc4c(S(=O)(=O)O)c(N)ccc34)c(C(=O)O)c1)c1ccccc1-2)C(=O)NC(C)(C)C(=O)N[C@@H](Cc1ccccc1)C(=O)N[C@H]1CSSC[C@@H](C(=O)N[C@H](C(=O)N[C@H](C(=O)N[C@@H](CC(=O)O)C(N)=O)[C@@H](C)O)C(C)(C)C)NC(=O)[C@H](CC(N)=O)NC(=O)C(C)(C)NC(=O)[C@H](CCCNC(=N)N)NC(=O)[C@H](CCCCN)NC1=O [PSM-0272, AF488Ahx-Ttds-Ttds-Thr-Aib-Phe-[Cys-Lys-Arg-Aib-Asn-Cys]-Tle-Thr-Asp-NH2] ({X17-Suc}-T[Aib]FCKR[Aib]NC[Tle]TD-NH2; disulfide 4-9)

More lines, now with the values behind:

SMILES: CSCC[C@@H]1NC(=O)C(C)(C)NC(=O)[C@H](CCCNC(N)=O)NC(=O)[C@H](CCCCN)NC(=O)[C@@H](NC(=O)[C@H](Cc2ccc(Cl)cc2)NC(=O)C(C)(C)NC(=O)[C@@H](NC(C)=O)[C@@H](C)O)CSSC[C@@H](C(=O)N[C@H](C(=O)N[C@H](C(N)=O)[C@@H](C)O)C(C)(C)C)NC1=O [PSM-0229, Ac-Thr-Aib-Pcf-[Cys-Lys-Arg-Aib-Met-Cys]-Tle-Thr-NH2] (Ac-T[Aib][Phe(4-Cl)]CK[Cit][Aib]MC[Tle]T-NH2; disulfide 4-9)
- Kd [1, 3]: < 12.6 nM

SMILES: CC(C)C[C@H](NC(=O)[C@@H]1CSSC[C@H](NC(=O)[C@H](Cc2ccccc2)NC(=O)[C@H](C)NC(=O)[C@@H](NC(=O)CCC(=O)NCCCOCCOCCOCCCNC(=O)CN2CCN(CC(=O)O)CCN(CC(=O)O)CCN(CC(=O)O)CC2)[C@@H](C)O)C(=O)N[C@@H](CCCCN)C(=O)N[C@@H](CCCNC(=N)N)C(=O)N[C@@H](C)C(=O)N[C@@H](CC(N)=O)C(=O)N1)C(=O)N[C@H](C(=O)N[C@@H](CC(=O)O)C(N)=O)[C@@H](C)O [PSM-0251, DOTA-Ttds-Thr-Ala-Phe-[Cys-Lys-Arg-Ala-Asn-Cys]-Leu-Thr-Asp-NH2] ({X3-Suc}-TAFCKRANCLTD-NH2; disulfide 4-9)
- IC50 ([2]; FACS binding, competition with 50 nM PSM-0183, category): 200 to 1260 nM

SMILES: CC(=O)N[C@H](C(=O)NC(C)(C)C(=O)N[C@@H](Cc1ccccc1)C(=O)N[C@H]1CSSC[C@@H](C(=O)N[C@H](C(=O)N[C@H](C(=O)N[C@@H](CC(=O)O)C(=O)NCCCOCCOCCOCCCNC(=O)CCC(=O)NCCCOCCOCCOCCCNC(=O)CCC(=O)N[C@H](CCCCn2nnc3c2-c2ccccc2CN(C(=O)CCNC(=O)c2ccc(-c4c5ccc(=N)c(S(=O)(=O)O)c-5oc5c(S(=O)(=O)O)c(N)ccc45)c(C(=O)O)c2)c2ccccc2-3)C(N)=O)[C@@H](C)O)C(C)(C)C)NC(=O)[C@H](CC(N)=O)NC(=O)C(C)(C)NC(=O)[C@H](CCCNC(=N)N)NC(=O)[C@H](CCCCN)NC1=O)[C@@H](C)O [PSM-0183, Ac-Thr-Aib-Phe-[Cys-Lys-Arg-Aib-Asn-Cys]-Tle-Thr-Asp-Ttds-Ttds-AF488N3K-NH2]
- Kd [1, 3]: < 12.6 nM
